For this assay, the target named is T1, ABL1 (Homo sapiens, UniProt P00519).
T1 construct: purchased Thermo Fisher Scientific (Life Technologies) SelectScreen
In words: SelectScreen Z'LYTE. The assay is classed as biochemical. In short, it runs like this:
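Compound tested in SelectScreen activity assays, Z'LYTE for CSF1R, CDK1/cyclin B and MAP2K6 and Adapta for CAMK1. ATP for CAMK1 was listed as 10, and Km app was used for CSF1R. Results are expressed in percent.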

SMILES strings stand for the structures.

T1 sequence (P00519 whole entry): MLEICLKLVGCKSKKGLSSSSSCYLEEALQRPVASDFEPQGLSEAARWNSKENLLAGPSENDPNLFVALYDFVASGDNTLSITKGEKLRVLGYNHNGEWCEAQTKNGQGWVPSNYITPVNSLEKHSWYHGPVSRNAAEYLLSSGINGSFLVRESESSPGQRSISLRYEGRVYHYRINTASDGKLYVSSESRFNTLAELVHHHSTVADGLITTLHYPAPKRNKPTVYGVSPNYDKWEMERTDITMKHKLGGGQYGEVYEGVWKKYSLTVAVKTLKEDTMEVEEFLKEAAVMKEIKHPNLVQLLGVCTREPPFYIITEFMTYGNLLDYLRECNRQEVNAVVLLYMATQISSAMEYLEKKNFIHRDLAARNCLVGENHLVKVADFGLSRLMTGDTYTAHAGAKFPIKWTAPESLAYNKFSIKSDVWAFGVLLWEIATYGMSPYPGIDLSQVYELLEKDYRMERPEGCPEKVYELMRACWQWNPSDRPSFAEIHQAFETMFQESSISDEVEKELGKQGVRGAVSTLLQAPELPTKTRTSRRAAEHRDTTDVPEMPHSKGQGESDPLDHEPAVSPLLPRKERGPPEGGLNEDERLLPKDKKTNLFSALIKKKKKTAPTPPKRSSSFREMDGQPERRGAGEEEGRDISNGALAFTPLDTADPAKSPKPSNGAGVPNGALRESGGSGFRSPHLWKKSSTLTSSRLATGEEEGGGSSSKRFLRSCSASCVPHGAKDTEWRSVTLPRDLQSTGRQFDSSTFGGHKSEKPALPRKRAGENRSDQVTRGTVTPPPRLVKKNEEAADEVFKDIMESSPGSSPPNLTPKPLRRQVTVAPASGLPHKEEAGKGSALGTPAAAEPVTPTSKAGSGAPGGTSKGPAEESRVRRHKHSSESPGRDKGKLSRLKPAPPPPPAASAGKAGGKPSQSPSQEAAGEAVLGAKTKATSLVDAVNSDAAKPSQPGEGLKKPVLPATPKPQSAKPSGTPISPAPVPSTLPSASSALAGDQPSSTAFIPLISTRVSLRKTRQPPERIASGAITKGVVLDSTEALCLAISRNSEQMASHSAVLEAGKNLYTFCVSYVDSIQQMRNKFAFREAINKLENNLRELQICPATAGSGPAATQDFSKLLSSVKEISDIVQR

On to `CN(C(=O)CN1CCOCC1)c1ccc2sc3c(-c4cccc5c(=O)cc(N6CC7CCC(C6)O7)oc45)cccc3c2c1` [NU5455], for which testing at 1 µM gave an inhibition of 10.4%.

The values above are taken from PMC6934184, “Selective DNA-PKcs inhibition extends the therapeutic index of localized radiotherapy and chemotherapy” (The Journal of Clinical Investigation, 2019).
